According to ChEMBL document CHEMBL1201862, “PubChem BioAssay data set” (2004):
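A five-concentration, 48-hour dose response in 96-well plates underlies each endpoint, interpolated linearly between surrounding concentrations. GI50 = concentration required for 50% inhibition of growth.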 Activity calls are given as the source filed them. Cut-off read from the data, not from the text of the source: active = GI50 up to about 1.1 µM and inactive = higher. Numbered stars: 1 amine (or outer) side, 2 acyl side, 3 side chain; on linkers, the order of the positions; unused ones are H or OH. Square brackets hold non-standard residues; d marks the D form. Peptide text beside a SMILES is read from it. X55 = CC[C@H](C)[C@H](OC(=O)[C@@H](C)[C@@H](CC)N[*:1])C(=O)[*:2]; X31 = C[C@H](N[*:1])C(=O)C(C)(C)C(=O)[*:2]; NMeY = CN[C@@H](Cc1ccc(O)cc1)C(=O)O; NMeL = CN[C@@H](CC(C)C)C(=O)O; NMeV = CN[C@H](C(=O)O)C(C)C

Columns and labels:
Test in all cases: growth of human tumour cells (NCI), 48 h
[1] = system: 786-0
[2] = system: CAKI-1
[3] = system: EKVX
[4] = system: HCT-15
[5] = system: HOP-62
[6] = system: Hs-578T
[7] = system: IGROV-1
[8] = system: LOX IMVI
[9] = system: M14
[10] = system: MDA-N
[11] = system: Malme-3M
[12] = system: NCI-H226
[13] = system: NCI-H522
[14] = system: OVCAR-3
[15] = system: OVCAR-4
[16] = system: OVCAR-5
[17] = system: SF-295
[18] = system: SK-MEL-5
[19] = system: UACC-257
[20] = system: UACC-62

| SMILES | GI50 [1] | GI50 [2] | GI50 [3] | GI50 [4] [nM] | GI50 [5] | GI50 [6] | GI50 [7] | GI50 [8] | GI50 [9] | GI50 [10] | GI50 [11] | GI50 [12] | GI50 [13] | GI50 [14] | GI50 [15] | GI50 [16] | GI50 [17] | GI50 [18] | GI50 [19] | GI50 [20] |
| --- | --- | --- | --- | --- | --- | --- | --- | --- | --- | --- | --- | --- | --- | --- | --- | --- | --- | --- | --- | --- |
| Brc1ccccc1/C=C\C1(c2ccccc2)OCCO1 | 11600 nM (inactive) | 6590 nM (inactive) | 15800 nM (inactive) | 6380 | 14500 nM (inactive) | 7600 nM (inactive) | 13600 nM (inactive) | 3340 nM (inactive) | 11400 nM (inactive) | 12300 nM (inactive) | 15900 nM (inactive) | 18300 nM (inactive) | 8110 nM (inactive) | 12700 nM (inactive) | 4260 nM (inactive) | 15300 nM (inactive) | 13400 nM (inactive) | 15200 nM (inactive) | 16500 nM (inactive) | 14700 nM (inactive) |
| CC[C@H](C)[C@@H]1OC(=O)[C@@H](C)[C@@H](CC)NC(=O)[C@H](C)NC(=O)C(C)(C)C(=O)[C@H](C)NC(=O)[C@H](Cc2ccc(OC)cc2)N(C)C(=O)[C@H](C(C)C)N(C)C(=O)CNC(=O)[C@H](CC(C)C)N(C)C(=O)CNC1=O [DOLASTATIN 11] (cyclo(A[X55]G[NMeL]G[NMeV][NMeY](Me)[X31])) | 30.4 nM (active) | 34 nM (active) | 102 nM (active) | 670 | 49.7 nM (active) | 258 nM (active) | 35.5 nM (active) | 10 nM (active) | < 14.8 nM (active) | 85.5 nM (active) | 130 nM (active) | 137 nM (active) | 6.07 nM (active) | 41.3 nM (active) | 50.7 nM (active) | 900 nM (active) | 83.8 nM (active) | 24.7 nM (active) | 81.7 nM (active) | 89.3 nM (active) |
